# In ChEMBL document CHEMBL1201862, “PubChem BioAssay data set” (2004):
#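 Five compound concentrations were applied to cells in 96-well plates for 48 hours; endpoints were derived by simple linear interpolation of the resulting dose-response curve. Here, GI50 denotes the concentration required for 50% inhibition of growth.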 Calls of active or inactive are those of the source. No stated cut-off is given here; in the data, active = GI50 up to about 1.1 µM and inactive = higher.
# Experiments:
# Experiment in all cases: NCI anticancer screen, dose series, 48 h
# [1] = tested on: CCRF-CEM
# [2] = tested on: DU-145
# [3] = tested on: HCC 2998
# [4] = tested on: HCT-15
# [5] = tested on: HOP-92
# [6] = tested on: Hs-578T
# [7] = tested on: LOX IMVI
# [8] = tested on: MDA-MB-231
# [9] = tested on: MOLT-4
# [10] = tested on: NCI-H460
# [11] = tested on: NCI-H522
# [12] = tested on: OVCAR-5
# [13] = tested on: PC-3
# [14] = tested on: RPMI-8226
# [15] = tested on: RXF 393
# [16] = tested on: SF-268
# [17] = tested on: SN12C
# [18] = tested on: TK-10
# [19] = tested on: UACC-257
Compound,GI50 [1],GI50 [2],GI50 [3],GI50 [4] [µM],GI50 [5],GI50 [6],GI50 [7],GI50 [8],GI50 [9],GI50 [10],GI50 [11],GI50 [12],GI50 [13],GI50 [14],GI50 [15],GI50 [16],GI50 [17],GI50 [18],GI50 [19]
CCOC(=O)c1nc2cc(C(F)(F)F)ccc2nc1Nc1cc(OC)c(OC)c(OC)c1,> 100 µM (inactive),> 100 µM (inactive),> 100 µM (inactive),> 100,> 100 µM (inactive),> 100 µM (inactive),> 100 µM (inactive),> 100 µM (inactive),> 100 µM (inactive),> 100 µM (inactive),> 100 µM (inactive),> 100 µM (inactive),> 100 µM (inactive),> 100 µM (inactive),> 100 µM (inactive),> 100 µM (inactive),> 100 µM (inactive),> 100 µM (inactive),> 100 µM (inactive)
Nc1ccc(C(=O)CC(N)C(=O)O)cc1O (stereo not given),> 100 µM (inactive),> 100 µM (inactive),> 100 µM (inactive),> 100,> 100 µM (inactive),> 100 µM (inactive),> 100 µM (inactive),> 100 µM (inactive),> 100 µM (inactive),> 100 µM (inactive),> 100 µM (inactive),> 100 µM (inactive),> 100 µM (inactive),> 100 µM (inactive),> 100 µM (inactive),> 100 µM (inactive),> 100 µM (inactive),> 100 µM (inactive),> 100 µM (inactive)
CCc1nnc2sc(-c3ccc(-c4ccccc4[N+](=O)[O-])o3)nn12,26.9 µM (inactive),66.2 µM (inactive),50.1 µM (inactive),30.1,84.7 µM (inactive),54.3 µM (inactive),36.2 µM (inactive),53.1 µM (inactive),19.5 µM (inactive),31 µM (inactive),37.4 µM (inactive),62.2 µM (inactive),42.9 µM (inactive),20.7 µM (inactive),57.9 µM (inactive),49.1 µM (inactive),53 µM (inactive),75.7 µM (inactive),61.7 µM (inactive)
O=CNc1ccccc1OCCOc1ccccc1NC=O,> 100 µM (inactive),> 100 µM (inactive),> 100 µM (inactive),> 100,> 100 µM (inactive),> 100 µM (inactive),> 100 µM (inactive),> 100 µM (inactive),> 100 µM (inactive),> 100 µM (inactive),> 100 µM (inactive),> 100 µM (inactive),> 100 µM (inactive),> 100 µM (inactive),> 100 µM (inactive),> 100 µM (inactive),> 100 µM (inactive),> 100 µM (inactive),> 100 µM (inactive)
COc1ccc2nc3ccccc3c(NCCCCN(CCCl)CCCl)c2c1,0.01 µM (active),0.933 µM (active),1.04 µM (active),0.244,0.527 µM (active),2 µM (inactive),0.0596 µM (active),0.7 µM (active),0.01 µM (active),< 0.0352 µM (active),0.02 µM (active),0.507 µM (active),0.316 µM (active),< 0.0476 µM (active),0.0212 µM (active),0.0735 µM (active),0.0843 µM (active),1.17 µM (inactive),1.05 µM (active)
O=C(C[C@@H]1NCCC[C@H]1O)Cn1cnc2cc(Br)c(Cl)cc2c1=O,0.0192 µM (active),0.025 µM (active),0.0458 µM (active),0.0276,0.0304 µM (active),0.0274 µM (active),< 0.01 µM (active),0.0284 µM (active),0.0266 µM (active),0.0127 µM (active),< 0.0147 µM (active),< 0.0135 µM (active),0.0351 µM (active),0.0243 µM (active),0.0277 µM (active),0.0315 µM (active),< 0.01 µM (active),0.0491 µM (active),0.0336 µM (active)
O=C1Nc2cccc(Cl)c2/C1=C\c1c(-c2ccccc2)nc2n1CCS2,15 µM (inactive),19.8 µM (inactive),21.3 µM (inactive),18.9,20 µM (inactive),18.9 µM (inactive),16 µM (inactive),20.7 µM (inactive),10.6 µM (inactive),17.8 µM (inactive),30.2 µM (inactive),22.8 µM (inactive),18.6 µM (inactive),16.5 µM (inactive),19.6 µM (inactive),20.3 µM (inactive),16 µM (inactive),13.2 µM (inactive),21.4 µM (inactive)
C=C(c1ccccc1)C1ON(C)CCc2cc(OC)c(OC)cc21 (stereo not given),> 100 µM (inactive),> 100 µM (inactive),> 100 µM (inactive),68.1,34.4 µM (inactive),18.3 µM (inactive),26.2 µM (inactive),53.6 µM (inactive),89.3 µM (inactive),> 100 µM (inactive),56.4 µM (inactive),> 100 µM (inactive),> 100 µM (inactive),> 100 µM (inactive),> 100 µM (inactive),49.2 µM (inactive),> 100 µM (inactive),> 100 µM (inactive),42.3 µM (inactive)
CC1=NN(C(=O)CC(=O)Nc2cccc(Cl)c2)C(=O)C1/N=N\c1ccc(S(=O)(=O)c2ccc(/N=N/C3C(=O)N(C(=O)CC(=O)Nc4cccc(Cl)c4)N=C3C)cc2)cc1 (stereo not given),> 100 µM (inactive),83.8 µM (inactive),> 100 µM (inactive),> 100,> 100 µM (inactive),> 100 µM (inactive),> 100 µM (inactive),16.1 µM (inactive),> 100 µM (inactive),> 100 µM (inactive),> 100 µM (inactive),> 100 µM (inactive),> 100 µM (inactive),> 100 µM (inactive),> 100 µM (inactive),> 100 µM (inactive),> 100 µM (inactive),> 100 µM (inactive),> 100 µM (inactive)
COc1ccc(Cn2c3ccc([N+](=O)[O-])cc3c(=O)n2Cc2ccccn2)cc1,62.5 µM (inactive),> 100 µM (inactive),> 100 µM (inactive),> 100,90.6 µM (inactive),> 100 µM (inactive),78.2 µM (inactive),> 100 µM (inactive),31.3 µM (inactive),> 100 µM (inactive),66.4 µM (inactive),> 100 µM (inactive),85.9 µM (inactive),34.5 µM (inactive),86.5 µM (inactive),> 100 µM (inactive),> 100 µM (inactive),> 100 µM (inactive),55.1 µM (inactive)
CCc1c(Cc2cccc3ccccc23)n2c(nc1=O)SCC2OCCO (stereo not given),19.6 µM (inactive),88.3 µM (inactive),64.1 µM (inactive),43.5,0.328 µM (active),> 100 µM (inactive),79.3 µM (inactive),> 100 µM (inactive),26.6 µM (inactive),> 100 µM (inactive),49 µM (inactive),> 100 µM (inactive),52.6 µM (inactive),25.7 µM (inactive),> 100 µM (inactive),55.7 µM (inactive),> 100 µM (inactive),> 100 µM (inactive),> 100 µM (inactive)
O=C(O)CCO/N=C1/C(=C2/C(=O)Nc3ccccc32)Nc2ccccc21,13.8 µM (inactive),17.2 µM (inactive),15.3 µM (inactive),6.58,36.1 µM (inactive),21.1 µM (inactive),12.4 µM (inactive),37.4 µM (inactive),17.1 µM (inactive),17.6 µM (inactive),50.6 µM (inactive),40.9 µM (inactive),25.4 µM (inactive),42.2 µM (inactive),3.61 µM (inactive),26.1 µM (inactive),23.7 µM (inactive),32.4 µM (inactive),39.5 µM (inactive)
Cc1ccc(NC(=S)N/N=C2\C(=O)Nc3ccccc32)cc1,72.1 µM (inactive),4.43 µM (inactive),> 100 µM (inactive),> 100,> 100 µM (inactive),> 100 µM (inactive),66.5 µM (inactive),> 100 µM (inactive),> 100 µM (inactive),83 µM (inactive),> 100 µM (inactive),> 100 µM (inactive),> 100 µM (inactive),> 100 µM (inactive),84.7 µM (inactive),1.69 µM (inactive),> 100 µM (inactive),> 100 µM (inactive),> 100 µM (inactive)
COC(=O)c1ccc(Oc2nc3ccc(C(F)(F)F)cc3nc2-c2ccccc2)cc1,> 100 µM (inactive),> 100 µM (inactive),> 100 µM (inactive),> 100,> 100 µM (inactive),> 100 µM (inactive),> 100 µM (inactive),> 100 µM (inactive),66.4 µM (inactive),83.2 µM (inactive),94.6 µM (inactive),> 100 µM (inactive),> 100 µM (inactive),62.8 µM (inactive),74.5 µM (inactive),> 100 µM (inactive),> 100 µM (inactive),> 100 µM (inactive),> 100 µM (inactive)
CC(C)(C)C1CCC2c3c([nH]c4ccccc34)C3C(=O)N(c4ccc([N+](=O)[O-])cc4)C(=O)C3C2C1 (stereo not given),8.51 µM (inactive),26.7 µM (inactive),9.14 µM (inactive),18.1,2.7 µM (inactive),11.4 µM (inactive),8.34 µM (inactive),17.8 µM (inactive),5.28 µM (inactive),13.6 µM (inactive),12.5 µM (inactive),25.2 µM (inactive),26.9 µM (inactive),27 µM (inactive),10.4 µM (inactive),7.36 µM (inactive),4.86 µM (inactive),21.3 µM (inactive),29.1 µM (inactive)
